Source: patent US4564619A, “Carbostyril derivative” (Otsuka Pharmaceutical Co., Ltd., priority 1982, dated 1986)

How the values were obtained:
[1] = test system: collagen-induced aggregation in rabbit platelets; assay: Inhibition of collagen-induced platelet aggregation in rabbit platelet rich plasma; type: cell-based; settings: Oryctolagus cuniculus, read-out: Inhibition rate of collagen-induced aggregation; for inhibition at 100 µM (stock): Concentration of the test compound solution 10^-4 mole; for inhibition at 10 µM (stock): Concentration of the test compound solution 10^-5 mole
How it was run: (§1)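 Citrated rabbit PRP adjusted to 600,000 platelets/μl with PPP, preincubated with test compound 1 min at 37° C, then challenged with ADP (solution prepared at 7.5×10^-5 M) or collagen (solution at 200 μg/ml). Aggregation followed by light transmittance; % inhibition relative to control aggregation rate.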

[2] = test system: ADP-induced aggregation in rabbit platelets; assay: Inhibition of ADP-induced platelet aggregation in rabbit platelet rich plasma; type: cell-based; settings: Oryctolagus cuniculus, read-out: Inhibition rate of ADP-induced aggregation; for inhibition at 100 µM (stock): Concentration of the test compound solution 10^-4 mole; for inhibition at 10 µM (stock): Concentration of the test compound solution 10^-5 mole
How it was run: as §1

coronary artery = assay: Increased amount of the blood flow in coronary artery, intravenous administration, anesthetized dog; type: in vivo
How it was run: (§2)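 Pentobarbital-anesthetized (30 mg/kg i.v.), heparinized, thoracotomized dogs of either sex, 8-13 kg, under forced breathing; compound given via femoral vein. Coronary sinus outflow measured by electromagnetic flowmeter in an extracorporeal venous circuit to the carotid; blood pressure recorded from femoral artery.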

[3] = Change of blood pressure, intravenous administration, anesthetized dog; type: in vivo; set-up: unit not given here; settings: femoral artery
How it was run: as §2

Compound	inhibition at 100 µM (stock) [1] [%]	inhibition at 10 µM (stock) [1] [%]	inhibition at 100 µM (stock) [2] [%]	inhibition at 10 µM (stock) [2] [%]	Increased amount of the blood flow in coronary artery (coronary artery; 3 micrograms/kg) [mL/min]	Increased amount of the blood flow in coronary artery (coronary artery; 10 micrograms/kg) [mL/min]	Increased amount of the blood flow in coronary artery (coronary artery; 30 micrograms/kg) [mL/min]	Increased amount of the blood flow in coronary artery (coronary artery; 100 micrograms/kg) [mL/min]	Increased amount of the blood flow in coronary artery (coronary artery; 300 micrograms/kg) [mL/min]	Change of blood pressure ([3]; 3 micrograms/kg)	Change of blood pressure ([3]; 10 micrograms/kg)	Change of blood pressure ([3]; 30 micrograms/kg)	Change of blood pressure ([3]; 100 micrograms/kg)	Change of blood pressure ([3]; 300 micrograms/kg)	Increased amount of the blood flow in coronary artery (coronary artery; 1000 micrograms/kg) [mL/min]
COC(=O)C1=C(C)NC(C)=C(C(=O)OCCCOc2cccc3c2NC(=O)CC3)C1c1cccc([N+](=O)[O-])c1 (stereo not shown) [Compound 9, 8-{3-[2,6-Dimethyl-5-methoxycarbonyl-4-(3-nitrophenyl)-1,4-dihydropyridin-3-carboxy]-propoxy}-3,4-dihydrocarbostyril]	16	2	12	7	4	17	47	66	81	-14	-28	-36	-41	-36	
COC(=O)C1=C(C)NC(C)=C(C(=O)OCCCOc2ccc3c(c2)NC(=O)CC3)C1c1cccc([N+](=O)[O-])c1 (stereo not shown) [Compound 6, 7-{3-[2,6-Dimethyl-5-methoxycarbonyl-4-(3-nitrophenyl)-1,4-dihydropyridin-3-carboxy]-propoxy}-3,4-dihydrocarbostyril]	19	3	15	6		3	25	58	64	-3	-5	-15	-32	-44	
COC(=O)C1=C(C)NC(C)=C(C(=O)OCCN(C(=O)CCCOc2ccc3[nH]c(=O)ccc3c2)C2CCCCC2)C1c1cccc([N+](=O)[O-])c1 (stereo not shown) [Compound 31, N--{2-[1,4-Dihydro-2,6-dimethyl-5-methoxycarbonyl-4-(3-nitrophenyl)pyridin-3-carboxy]ethyl}-N--cyclohexyl-4-(6-carbostyriloxy)butyramide]	100	100	100	84				6	32		-1	-4	-8	-23	61
COC(=O)C1=C(C)NC(C)=C(C(=O)OCCOc2cccc3c2CCC(=O)N3)C1c1cccc([N+](=O)[O-])c1 (stereo not shown) [Compound 2, 5-{2-[2,6-Dimethyl-5-methoxycarbonyl-4-(3-nitrophenyl)-1,4-dihydropyridin-3-carboxy]-ethoxy}-3,4-dihydrocarbostyril]	79	17	28	1		3	13	38	52		-2	-6	-21	-34	
C=CCOc1ccc(OCCCOC(=O)C2=C(C)NC(C)=C(C(=O)OC)C2c2cccc([N+](=O)[O-])c2)c2c1NC(=O)CC2 (stereo not shown) [Compound 1, 5-{3-[2,6-Dimethyl-5-methoxycarbonyl-4-(3-nitrophenyl)-1,4-dihydropyridin-3-carboxy]-propoxy}-8-propenyloxy-3,4-dihydrocarbostyril]	51	15	19	1	4	34	63	62	42	-6	-17	-36	-42	-46	
COC(=O)C1=C(C)NC(C)=C(C(=O)OCCOc2ccc3c(c2)CCC(=O)N3)C1c1cccc([N+](=O)[O-])c1 (stereo not shown) [Compound 3, 6-{2-[2,6-Dimethyl-5-methoxycarbonyl-4-(3-nitrophenyl)-1,4-dihydropyridin-3-carboxy]-ethoxy}-3,4-dihydrocarbostyril]	100	97	100	27	2	1	3	14	38		-1	-4	-18	-34	
COC(=O)C1=C(C)NC(C)=C(C(=O)OCCN(C(=O)CCCOc2ccc3[nH]c(=O)ccc3c2)C2CCCCC2)C1c1ccccc1 (stereo not shown) [Compound 35, N--[2-(1,4-Dihydro-2,6-dimethyl-5-methoxycarbonyl-4-phenylpyridin-3-carboxy)ethyl]-N--cyclohexyl-4-(6-carbostyriloxy)butyramide]	100	100	100	89				5	17		-4	-6	-9	-26	47
